Measurements from ChEMBL document CHEMBL1201862, “PubChem BioAssay data set” (2004).
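Tested at 5 concentrations; 48 h exposure; 96-well plates; endpoints linearly interpolated, else capped at highest concentration. GI50 is the concentration that inhibits growth by half.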 Calls of active or inactive are those of the source. No stated cut-off is given here; in the data, active = GI50 up to about 1.1 µM and inactive = higher.

How the values were obtained:
Experiment in all cases: NCI tumour cell line growth inhibition, 48 h
IGROV-1 = system: IGROV-1
SK-MEL-28 = system: SK-MEL-28
SR = system: SR
OVCAR-4 = system: OVCAR-4
SF-268 = system: SF-268
HL-60 = system: HL-60
NCI-H23 = system: NCI-H23
OVCAR-3 = system: OVCAR-3
HCC 2998 = system: HCC 2998
HCT-116 = system: HCT-116
SNB-19 = system: SNB-19
LOX IMVI = system: LOX IMVI
786-0 = system: 786-0
NCI-H460 = system: NCI-H460
RXF 393 = system: RXF 393
SNB-75 = system: SNB-75
RPMI-8226 = system: RPMI-8226
CAKI-1 = system: CAKI-1
SK-MEL-2 = system: SK-MEL-2

Measured: GI50

COc1ccc(-c2cc(O)c3cc(Cl)ccc3n2)cc1
inactive: IGROV-1 > 100 µM | SK-MEL-28 > 100 µM | SR > 100 µM | OVCAR-4 > 100 µM | SF-268 > 100 µM | HL-60 > 100 µM | NCI-H23 > 100 µM | OVCAR-3 > 100 µM | HCC 2998 > 100 µM | HCT-116 > 100 µM | SNB-19 > 100 µM | LOX IMVI > 100 µM | 786-0 > 100 µM | NCI-H460 > 100 µM | RXF 393 > 100 µM | SNB-75 > 100 µM | RPMI-8226 > 100 µM

NCCCCNCCCNC(=O)c1nc(-c2csc(CCN)n2)sc1Cl
inactive: IGROV-1 > 100 µM | SK-MEL-28 > 100 µM | SR > 100 µM | CAKI-1 > 100 µM | OVCAR-4 > 100 µM | SF-268 62.7 µM | HL-60 > 100 µM | NCI-H23 > 100 µM | OVCAR-3 > 100 µM | HCC 2998 > 100 µM | HCT-116 > 100 µM | SNB-19 > 100 µM | SK-MEL-2 > 100 µM | NCI-H460 > 100 µM | RXF 393 > 100 µM | SNB-75 > 100 µM | RPMI-8226 > 100 µM

CC(C)OP(=O)(OC(C)C)C1=NN(c2ccc([N+](=O)[O-])cc2)C(P(=O)(OC(C)C)OC(C)C)=NN1c1ccc([N+](=O)[O-])cc1
inactive: IGROV-1 > 100 µM | SK-MEL-28 > 100 µM | SR 9.08 µM | CAKI-1 63.5 µM | OVCAR-4 > 100 µM | SF-268 > 100 µM | HL-60 2.55 µM | NCI-H23 > 100 µM | OVCAR-3 > 100 µM | HCC 2998 47.2 µM | HCT-116 7.6 µM | SNB-19 > 100 µM | LOX IMVI > 100 µM | SK-MEL-2 > 100 µM | NCI-H460 29.2 µM | RXF 393 > 100 µM | RPMI-8226 5.62 µM

O=C(CCc1nnc2s/c(=C\c3ccccc3Cl)c(=O)n12)Nc1cc(Cl)ccc1Cl
inactive: IGROV-1 > 100 µM | SK-MEL-28 > 100 µM | SR > 100 µM | CAKI-1 > 100 µM | OVCAR-4 > 100 µM | SF-268 > 100 µM | HL-60 > 100 µM | NCI-H23 > 100 µM | OVCAR-3 > 100 µM | HCC 2998 > 100 µM | HCT-116 > 100 µM | SNB-19 > 100 µM | LOX IMVI > 100 µM | 786-0 > 100 µM | SK-MEL-2 > 100 µM | NCI-H460 > 100 µM | RXF 393 > 100 µM | RPMI-8226 > 100 µM

CC1CC(c2ccc(Cl)c(Cl)c2)=Nc2ccccc2S1 (stereo not drawn)
inactive: IGROV-1 > 100 µM | SK-MEL-28 > 100 µM | SR 46 µM | CAKI-1 > 100 µM | OVCAR-4 > 100 µM | SF-268 > 100 µM | HL-60 > 100 µM | NCI-H23 > 100 µM | OVCAR-3 44.5 µM | HCC 2998 > 100 µM | HCT-116 > 100 µM | SNB-19 > 100 µM | LOX IMVI > 100 µM | 786-0 > 100 µM | NCI-H460 > 100 µM | RXF 393 > 100 µM | SNB-75 > 100 µM | RPMI-8226 > 100 µM

C[n+]1c2ccccc2c(NC(CCCNC(=N)N)C(=O)O)c2ccccc21 (stereo not drawn)
inactive: IGROV-1 > 100 µM | SR > 100 µM | CAKI-1 > 100 µM | OVCAR-4 > 100 µM | SF-268 > 100 µM | HL-60 39.1 µM | NCI-H23 > 100 µM | OVCAR-3 > 100 µM | HCC 2998 > 100 µM | HCT-116 > 100 µM | SNB-19 > 100 µM | 786-0 > 100 µM | SK-MEL-2 > 100 µM | NCI-H460 > 100 µM | RXF 393 > 100 µM | SNB-75 > 100 µM | RPMI-8226 7.55 µM

O=C1C(Cl)=C(Cl)C(=O)N1C1C2CC3CC(C2)CC1C3 (stereo not drawn)
inactive: IGROV-1 > 100 µM | SK-MEL-28 > 100 µM | SR 31 µM | CAKI-1 38.3 µM | OVCAR-4 > 100 µM | SF-268 > 100 µM | HL-60 24.5 µM | NCI-H23 > 100 µM | HCC 2998 > 100 µM | HCT-116 > 100 µM | SNB-19 > 100 µM | LOX IMVI > 100 µM | 786-0 > 100 µM | SK-MEL-2 > 100 µM | NCI-H460 > 100 µM | RXF 393 94.6 µM | SNB-75 > 100 µM | RPMI-8226 27 µM

O=C1OC(c2ccccc2)=N/C1=C/NC(Cc1c[nH]c2ccccc12)C(=O)O (stereo not drawn)
inactive: IGROV-1 > 100 µM | SK-MEL-28 > 100 µM | SR > 100 µM | OVCAR-4 > 100 µM | SF-268 > 100 µM | HL-60 > 100 µM | NCI-H23 > 100 µM | OVCAR-3 > 100 µM | HCC 2998 > 100 µM | HCT-116 > 100 µM | SNB-19 > 100 µM | LOX IMVI > 100 µM | 786-0 > 100 µM | SK-MEL-2 > 100 µM | NCI-H460 > 100 µM | RXF 393 > 100 µM | SNB-75 69.7 µM | RPMI-8226 > 100 µM

CC1=NOC(=O)/C1=C/c1ccc([N+](=O)[O-])cc1
inactive: IGROV-1 > 100 µM | SK-MEL-28 > 100 µM | SR > 100 µM | CAKI-1 > 100 µM | OVCAR-4 > 100 µM | SF-268 > 100 µM | HL-60 > 100 µM | NCI-H23 > 100 µM | OVCAR-3 > 100 µM | HCC 2998 > 100 µM | HCT-116 > 100 µM | SNB-19 > 100 µM | LOX IMVI > 100 µM | 786-0 > 100 µM | SK-MEL-2 > 100 µM | NCI-H460 > 100 µM | RXF 393 > 100 µM | SNB-75 > 100 µM

CC(C)(C)/N=C/N1C=Cc2nc3ccccc3cc2C1
inactive: IGROV-1 > 100 µM | SK-MEL-28 > 100 µM | SR > 100 µM | CAKI-1 > 100 µM | OVCAR-4 > 100 µM | SF-268 > 100 µM | HL-60 75.7 µM | NCI-H23 > 100 µM | OVCAR-3 > 100 µM | HCC 2998 > 100 µM | HCT-116 > 100 µM | SNB-19 > 100 µM | LOX IMVI 26.7 µM | 786-0 > 100 µM | SK-MEL-2 > 100 µM | NCI-H460 32.6 µM | RXF 393 > 100 µM | SNB-75 > 100 µM

CN1CCc2cc(O)c3cc2C1Cc1ccc(cc1)Oc1cc(ccc1O)CC1c2c(cc4c(c2O3)OCO4)CCN1C (stereo not drawn)
inactive: IGROV-1 25.6 µM | SK-MEL-28 21.3 µM | SR 28.8 µM | OVCAR-4 28.8 µM | SF-268 33.1 µM | HL-60 16.3 µM | NCI-H23 > 100 µM | OVCAR-3 75 µM | HCC 2998 19.5 µM | HCT-116 36.6 µM | SNB-19 44.6 µM | 786-0 58.2 µM | SK-MEL-2 16.1 µM | NCI-H460 46.2 µM | RXF 393 11.2 µM | SNB-75 13.4 µM

O=c1cc(-c2ccc(Cl)cc2)oc2cc(OCCCOc3ccc4c(=O)cc(-c5ccc(Cl)cc5)oc4c3)ccc12
inactive: IGROV-1 > 100 µM | SK-MEL-28 > 100 µM | SR > 100 µM | CAKI-1 > 100 µM | OVCAR-4 > 100 µM | SF-268 > 100 µM | HL-60 > 100 µM | NCI-H23 > 100 µM | OVCAR-3 > 100 µM | HCC 2998 > 100 µM | HCT-116 > 100 µM | SNB-19 > 100 µM | LOX IMVI > 100 µM | 786-0 > 100 µM | SK-MEL-2 > 100 µM | NCI-H460 > 100 µM | RXF 393 > 100 µM | SNB-75 45.2 µM | RPMI-8226 > 100 µM

O=C1NC2CCC(C2)C1c1ccccc1 (stereo not drawn)
inactive: IGROV-1 > 100 µM | SK-MEL-28 > 100 µM | SR > 100 µM | OVCAR-4 > 100 µM | SF-268 > 100 µM | HL-60 > 100 µM | NCI-H23 > 100 µM | OVCAR-3 > 100 µM | HCC 2998 > 100 µM | SNB-19 > 100 µM | LOX IMVI > 100 µM | 786-0 > 100 µM | NCI-H460 > 100 µM | RXF 393 > 100 µM | SNB-75 > 100 µM | RPMI-8226 > 100 µM

CC1=C(O)C(=O)c2cn(C)cc2C1=O
inactive: IGROV-1 > 100 µM | SK-MEL-28 > 100 µM | SR > 100 µM | CAKI-1 > 100 µM | OVCAR-4 > 100 µM | SF-268 > 100 µM | HL-60 > 100 µM | NCI-H23 > 100 µM | OVCAR-3 > 100 µM | HCC 2998 > 100 µM | HCT-116 > 100 µM | SNB-19 > 100 µM | LOX IMVI > 100 µM | 786-0 > 100 µM | SK-MEL-2 > 100 µM | NCI-H460 > 100 µM | RXF 393 > 100 µM | SNB-75 > 100 µM | RPMI-8226 > 100 µM

O=C(O)C1c2ccccc2C(C(=O)O)c2ccccc21 (stereo not drawn)
inactive: IGROV-1 > 100 µM | SR > 100 µM | CAKI-1 > 100 µM | OVCAR-4 > 100 µM | SF-268 > 100 µM | HL-60 > 100 µM | HCC 2998 > 100 µM | HCT-116 > 100 µM | SNB-19 > 100 µM | LOX IMVI > 100 µM | 786-0 > 100 µM | SK-MEL-2 > 100 µM | NCI-H460 > 100 µM | RXF 393 > 100 µM | SNB-75 > 100 µM | RPMI-8226 > 100 µM

COc1ccc(/C(Cl)=C(\C=O)c2ccc(Cl)cc2)cc1
inactive: IGROV-1 7.71 µM | SR 2.69 µM | CAKI-1 9.51 µM | OVCAR-4 8.61 µM | SF-268 6.11 µM | HL-60 3.46 µM | NCI-H23 3.56 µM | OVCAR-3 4.68 µM | HCC 2998 23.2 µM | HCT-116 4.02 µM | SNB-19 7.01 µM | LOX IMVI 3.45 µM | SK-MEL-2 3.82 µM | NCI-H460 3.81 µM | RXF 393 10.7 µM | SNB-75 4.27 µM
